ChEMBL document CHEMBL1201862, “PubChem BioAssay data set” (2004)
Calls of active or inactive are those of the source.

Columns and labels:
[1] = target: T1, Calpain-2 catalytic subunit (Sus scrofa, UniProt P43367); assay: m-calpain protease blockers, concentration series – biochemical, fluorogenic peptide substrate, dose response (AID 1420); assay type: functional
T1 sequence (P43367 whole entry): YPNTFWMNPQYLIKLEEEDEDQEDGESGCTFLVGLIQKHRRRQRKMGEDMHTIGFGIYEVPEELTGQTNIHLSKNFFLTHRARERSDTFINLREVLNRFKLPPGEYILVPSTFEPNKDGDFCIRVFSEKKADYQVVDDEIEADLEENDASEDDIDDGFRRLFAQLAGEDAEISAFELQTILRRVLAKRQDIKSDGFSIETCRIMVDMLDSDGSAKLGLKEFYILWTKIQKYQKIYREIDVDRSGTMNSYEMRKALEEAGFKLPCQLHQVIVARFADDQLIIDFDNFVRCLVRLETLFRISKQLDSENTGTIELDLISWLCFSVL

[2] = viability loss in HEK293 cells – cell-based, plate reader, cherry-picked samples, cytotoxicity control, dose response (AID 743446); assay type: functional
Protein RecA = target: T2, Protein RecA (Mycobacterium tuberculosis, UniProt P9WHJ3); assay: Fluorescence Cell-Free Homogeneous Dose Retest to Identify Inhibitors of RecA-Intein Splicing Activity. [Related pubchem assays (depositor defined):AID2097, AID2223, AID489010, AID492950]; assay type: functional
T2 sequence (P9WHJ3 whole entry): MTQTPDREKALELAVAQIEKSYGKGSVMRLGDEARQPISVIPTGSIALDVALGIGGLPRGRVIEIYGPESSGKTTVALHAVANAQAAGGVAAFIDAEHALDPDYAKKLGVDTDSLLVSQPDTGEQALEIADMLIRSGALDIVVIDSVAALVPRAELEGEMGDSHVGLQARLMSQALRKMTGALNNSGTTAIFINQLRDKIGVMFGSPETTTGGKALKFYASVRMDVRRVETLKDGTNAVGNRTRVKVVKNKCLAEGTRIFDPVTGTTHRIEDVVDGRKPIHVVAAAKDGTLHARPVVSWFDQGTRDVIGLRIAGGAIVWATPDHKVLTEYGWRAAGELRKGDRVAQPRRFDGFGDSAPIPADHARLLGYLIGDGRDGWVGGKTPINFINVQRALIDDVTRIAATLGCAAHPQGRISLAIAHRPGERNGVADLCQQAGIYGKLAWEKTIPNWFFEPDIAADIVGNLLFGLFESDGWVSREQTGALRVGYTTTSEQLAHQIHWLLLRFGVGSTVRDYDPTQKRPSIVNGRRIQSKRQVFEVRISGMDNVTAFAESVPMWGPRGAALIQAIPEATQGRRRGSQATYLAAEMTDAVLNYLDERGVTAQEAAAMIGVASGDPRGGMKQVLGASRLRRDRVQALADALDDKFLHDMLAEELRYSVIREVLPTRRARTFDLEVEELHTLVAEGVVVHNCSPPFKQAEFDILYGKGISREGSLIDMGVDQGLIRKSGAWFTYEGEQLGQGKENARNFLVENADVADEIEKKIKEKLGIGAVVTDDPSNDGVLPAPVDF

HEK293 = assay: optical interference in Abeta FP readout, dose response, artefact control for IDE activator project, biochemical, fluorescence polarization (AID 588442); assay type: functional, cell-based; details: Homo sapiens
[3] = toxicity toward HepG2 liver cells – cell-based, plate reader, cherry-pick, antagonist series, cytotoxicity control, dose response (AID 743416); assay type: functional

In the case of `Cl.N=c1n(Cc2ccccc2)c2ccccc2n1CC(O)COc1ccc(Cl)cc1Cl` (stereo not given), the IC50 [1] is reported as 33.4 µM (not active), the AC50 [2] is reported as 12.7 µM (active) and the EC50 (Protein RecA) is reported as > 380 µM (inconclusive). For the same compound, the EC50 (HEK293) was > 54.7 µM (inactive) and the AC50 [3] was 6.16 µM (active).
